Test results: the NIST ThermoML archive (doi:10.1021/je200616t)
± gives the expanded uncertainty stated by the source.

Assay: xn = mol fraction of the nth substance listed
Conditions: 101 kPa, Liquid, MP522 conductivity instrument

CCCCCC[n+]1ccccc1.O=S(=O)([N-]S(=O)(=O)C(F)(F)F)C(F)(F)F [1-hexylpyridinium bis(trifluromethylsulfonyl)imide] + CC#N
electrical conductivity [S/m]
Conditions | 283.15 K | 293.15 K | 298.15 K | 303.15 K | 313.15 K
x1 = 0.0432 | 2.75 ± 0.06 | 3.05 ± 0.06 | 3.2 ± 0.06 | 3.35 ± 0.07 | 3.65 ± 0.07
x1 = 0.0703 | 2.91 ± 0.06 | 3.28 ± 0.07 | 3.46 ± 0.07 | 3.65 ± 0.07 | 4.01 ± 0.08
x1 = 0.0883 | 2.83 ± 0.06 | 3.22 ± 0.06 | 3.42 ± 0.07 | 3.61 ± 0.07 | 4 ± 0.08
x1 = 0.1355 | 2.37 ± 0.05 | 2.77 ± 0.06 | 2.98 ± 0.06 | 3.19 ± 0.06 | 3.61 ± 0.07
x1 = 0.2056 | 1.64 ± 0.033 | 2 ± 0.04 | 2.19 ± 0.04 | 2.39 ± 0.05 | 2.81 ± 0.06
x1 = 0.2534 | 1.27 ± 0.026 | 1.59 ± 0.032 | 1.77 ± 0.036 | 2 ± 0.04 | 2.38 ± 0.05
x1 = 0.332 | 0.886 ± 0.018 | 1.16 ± 0.023 | 1.3 ± 0.026 | 1.46 ± 0.029 | 1.79 ± 0.036
x1 = 0.4498 | 0.503 ± 0.01 | 0.702 ± 0.014 | 0.811 ± 0.016 | 0.935 ± 0.019 | 1.2 ± 0.024
x1 = 0.5297 | 0.351 ± 0.007 | 0.51 ± 0.01 | 0.599 ± 0.012 | 0.702 ± 0.014 | 0.924 ± 0.019
x1 = 0.6276 | 0.239 ± 0.005 | 0.362 ± 0.007 | 0.437 ± 0.009 | 0.518 ± 0.011 | 0.704 ± 0.014
x1 = 0.8155 | 0.128 ± 0.003 | 0.207 ± 0.004 | 0.256 ± 0.005 | 0.316 ± 0.006 | 0.452 ± 0.009
x1 = 0.9205 | 0.0936 ± 0.002 | 0.157 ± 0.003 | 0.197 ± 0.004 | 0.245 ± 0.005 | 0.358 ± 0.007
x1 = 1 | 0.0737 ± 0.0016 | 0.128 ± 0.003 | 0.163 ± 0.003 | 0.205 ± 0.004 | 0.306 ± 0.006

CCCCCC[n+]1ccccc1.O=S(=O)([N-]S(=O)(=O)C(F)(F)F)C(F)(F)F [1-hexylpyridinium bis(trifluromethylsulfonyl)imide] + CC1COC(=O)O1
electrical conductivity [S/m]
Conditions | 283.15 K | 293.15 K | 298.15 K | 303.15 K | 313.15 K
x1 = 0.0128 | 0.184 ± 0.004 | 0.226 ± 0.005 | 0.249 ± 0.005 | 0.275 ± 0.006 | 0.324 ± 0.007
x1 = 0.0186 | 0.243 ± 0.005 | 0.303 ± 0.006 | 0.334 ± 0.007 | 0.367 ± 0.007 | 0.435 ± 0.009
x1 = 0.0321 | 0.354 ± 0.007 | 0.445 ± 0.009 | 0.489 ± 0.01 | 0.539 ± 0.011 | 0.641 ± 0.013
x1 = 0.0545 | 0.472 ± 0.01 | 0.597 ± 0.012 | 0.661 ± 0.013 | 0.731 ± 0.015 | 0.874 ± 0.018
x1 = 0.0693 | 0.519 ± 0.011 | 0.66 ± 0.013 | 0.733 ± 0.015 | 0.814 ± 0.016 | 0.976 ± 0.02
x1 = 0.1001 | 0.567 ± 0.011 | 0.729 ± 0.015 | 0.815 ± 0.016 | 0.911 ± 0.018 | 1.1 ± 0.022
x1 = 0.1332 | 0.574 ± 0.012 | 0.749 ± 0.015 | 0.841 ± 0.017 | 0.944 ± 0.019 | 1.16 ± 0.023
x1 = 0.1806 | 0.539 ± 0.011 | 0.72 ± 0.015 | 0.817 ± 0.016 | 0.925 ± 0.019 | 1.15 ± 0.023
x1 = 0.2489 | 0.463 ± 0.009 | 0.636 ± 0.013 | 0.73 ± 0.015 | 0.838 ± 0.017 | 1.06 ± 0.021
x1 = 0.334 | 0.366 ± 0.007 | 0.522 ± 0.011 | 0.609 ± 0.012 | 0.708 ± 0.014 | 0.918 ± 0.018
x1 = 0.4547 | 0.256 ± 0.005 | 0.384 ± 0.008 | 0.458 ± 0.009 | 0.542 ± 0.011 | 0.725 ± 0.015
x1 = 0.5693 | 0.19 ± 0.004 | 0.294 ± 0.006 | 0.358 ± 0.007 | 0.43 ± 0.009 | 0.589 ± 0.012
x1 = 0.7043 | 0.136 ± 0.003 | 0.218 ± 0.004 | 0.27 ± 0.006 | 0.332 ± 0.007 | 0.47 ± 0.01
x1 = 0.8506 | 0.0986 ± 0.0021 | 0.167 ± 0.003 | 0.208 ± 0.004 | 0.258 ± 0.005 | 0.377 ± 0.008
x1 = 0.9425 | 0.0826 ± 0.0018 | 0.141 ± 0.003 | 0.179 ± 0.004 | 0.223 ± 0.005 | 0.332 ± 0.007
x1 = 1 | 0.0737 ± 0.0016 | 0.129 ± 0.003 | 0.163 ± 0.003 | 0.205 ± 0.004 | 0.306 ± 0.006
